Where two headings read alike, the source gives them in different places.
What was measured:
platelets [1] = assay: Ex vivo platelet aggregation in the canine coronary thrombosis study; parameters: species or system dog
Protocol: For all ex vivo studies (see FIG. 3), control aggregation values were standardized to the percentages of light transmission observed in PRP and PPP samples (0% and 100%, respectively).
(§1) Animals were randomly assigned to two treatment groups: vehicle control (i.e., normal saline) or RGD peptides at various concentrations. Peptides were administered intra-atrially in both bolus and continuous injections. Each bolus injection consisted of 0.5 to 10 mg/kg and was administered 15 minutes before application of the current. A continuous infusion of the same peptide was then started immediately after completion of this initial injection. Animals received a 25 μg/kg/min to 200 μg/kg/min infusion. The anti-thrombotic effects of the peptides were monitored until 30 minutes after the occurrence of a persistent, occlusive thrombus or five hours after the initiation of electrical stimulation (whichever resulted first). If an occlusive thrombus had not developed within four hours after the initiation of current, the peptide infusion was stopped.
(§2) Platelet counts and ex vivo aggregation studies were performed one hour before and 1, 3, and 5 hours after application of anodal direct current.
Platelet aggregation was also determined ex vivo at one, three, and five hours after current application. For these studies, arachidonic acid, or collagen was again used to stimulate the platelets.

coronary thrombosis = assay: Electrically induced canine coronary thrombosis (time to full occlusion); format: in vivo, dog
Protocol: Male mongrel dogs weighing 14 to 20 kg were selected based on proper aggregation of their platelets in response to arachidonic acid, collagen, and adenosine disphosphate (ADP) and based on similar weights and hemodynamic properties.
Before surgery, the animals were anesthetized with sodium pentobarbital (30 mg/kg, i.v.) and then intubated and ventilated on room air with positive pressure using a respirator (Harvard Apparatus, S. Natick, Mass.) at a volume of 30 ml/kg and a frequency of 12 breaths/min. Surgery, performed under aseptic conditions, was begun with the placement of cannulae into the left carotid artery and jugular vein for monitoring arterial blood pressure (Statham P23 pressure transducer, Gould, Inc., Cardiovascular Products, Oxnard, Calif.) and administering intravenous fluids.
The heart was exposed via a left thoracotomy through the 5th intercostal space. A 2-cm segment of the left circumflex coronary artery (LCCA) was isolated from surrounding tissue by blunt dissection. […] The intra-coronary electrode was constructed by attaching a 25-gauge hypodermic needle tip to a 30-gauge Teflon-insulated silver-coated copper wire. The mechanical occluder was constructed of stainless steel in a C shape with a Teflon screw (2 mm diameter) on top. It was adjusted to control vessel circumference and decrease the reactive hyperemic flow due to a 10-sec (full) occlusion by 50-70% without affecting basal coronary blood flow (FIG. 1). A monopolar epicardial electrode was sutured to the surface of the ventricle in the region of LCCA distribution to monitor ischemic changes in the electrocardiogram (ECG). The left atrium was cannulated with polythylene tubing for administration of the peptide. Continuous recordings of blood pressure, limb lead II ECG, epicardial electrogram, and mean and phasic LCCA blood flow were obtained on a Model 7 polygraph (Grass Instrument Co., Quincy, Mass.).
One hour after the completion of surgery, a 100 micro-amp continuous anodal direct current delivered from a 9 volt nickel-cadmium battery was applied to the intimal surface of the LCCA. The anode of the battery was in series with a 250,000 ohm potentiometer and the intraluminal coronary artery electrode. The electric circuit was completed by placing the cathode in a subcutaneous site. Electrical stimulation was applied for three hours. At the conclusion of each experiment, the heart was fibrillated electrically and quickly removed, and the LCCA was dissected free as far as possible to verify the position of the implanted anodal electrode.
as §1
Coronary thrombosis was quantified as the time to full occlusion. The effects of the various peptide treatments on coronary thrombosis is illustrated in FIG. 4.

[2] = test system: prosthetic arterial graft thrombosis; assay: Platelet and fibrinogen uptake by Gore-Tex arterial grafts in ex vivo shunt; parameters: species or system baboon
Protocol: Adult male baboons (weighing 16 to 25 kg) were used in these studies. These were sedated with ketamine hydrochloride (200 to 250 mg intramuscular injection) and maintained under anesthesia with sodium pentobarbital (50 to 75 mg administered intravenously as necessary).
Twenty-four hours before the ex vivo shunt was established, platelets were isolated from 500 ml of blood from the test animal and labelled with ca. 500 microcuries of indium-111 oxine (Medi+Physics, Emeryville, Calif.), which irreversibly and specifically binds to platelets with an efficiency of 50%. Immediately after labelling, these platelets were then injected back into the animal and allowed to circulate for 24 hours. Immediately before the start of the study, fibrinogen that had been isolated from the animal and labelled with iodine-131 (DuPont Nuclear, Boston, Mass.) was also injected back into the animal. Also at this time, baseline determinations of the clotting and template bleeding times were made, and blood samples were drawn for hematology studies.
To establish the ex vivo shunt, the femoral artery and vein were percutaneously cannulated with introducer catheters (KMA Inc., Mansfield, Mass.). The catheters were then connected to medical-grade, heparin-coated silastic tubing (2.59 mm internal diameter, (Extracorporeal Medical Specialties, Inc., King of Prussia, Pa.). […] Finally, a 5 cm-long test segment of a 4 mm (internal diameter) vascular graft was inserted at the apex of the circuit. The graft used in these studies was Gore-tex (expanded polytetrafluoroethylene, (W. L. Gore and Associates, Inc., Flagstaff, Ariz.). An electromagnetic flow probe was then inserted into the tubing circuit to measure blood flow, which was maintained at 100 ml/min. by varying the resistance imported by a partially occluding screw clamp that was distal to the probe. Finally, a 5 cm-long test segment of a 4 mm (internal diameter) vascular graft was inserted at the apex of the circuit. The graft used in these studies was Gore-tex (expanded polytetrafluoroethylene, W. L. Gore and Associates, Inc., Flagstaff, Ariz.).
Platelet deposition onto the grafts was monitored by dynamic scanning with a gamma camera (Sigma 400, Ohio Nuclear, Inc., Sohon, Ohio), which detects the gamma radiation emitted by the ^111indium-labelled platelets. Once the circuit was in place, the animal was placed under this camera, and blood flow was initiated. Scans were then taken at the rate of one frame per two minutes for two hours. The data from these scans were collected on a dedicated Digital MDA computer (Maynard, Mass.). […]

platelets [3] = assay: Ex vivo platelet aggregation on PRP of baboon; format: in vivo; conditions: animal 2; ADP 10 μm; 0, 1 and 2 hours
Protocol: At one- and two-hour time points, template bleeding times were measured, and blood samples were drawn to assess the hematology aggregation studies. Platelet aggregation studies were performed as described in Example V using ADP as the stimulus.
In addition, platelet aggregation studies were conducted on PRP derived from the second animal. Whole blood was drawn at three time points (0, 1 and 2 hours) of both control and experimental shunts.

canine platelets = assay: Canine platelet aggregation in vitro (ADP, arachidonic acid, collagen); format: cell-based, dog
Protocol: as §2
Epinephrine (550 nM) was used to prime platelets before stimulation with arachidonic acid. Peptides were added in 1% dilutions to the PRP solutions.

[4] = target: T1, vitronectin receptor (Vn-R) (Homo sapiens, UniProt P05106+P06756); assay: Vitronectin receptor binding (ELISA or liposome attachment assay); conditions: read-out: VnR Binding (IC50), purified receptor
T1 construct: from tissue; host or cells: human placenta
Protocol: Receptor and ligand purifications were performed according to the methods in this Example or those in Example XI.C. Receptors were purified according to the procedures of Pytela et al. (Methods Enzymol. 144:475 (1987)), incorporated herein by reference. […] Except where stated, all procedures were carried out at 4° C. The peptide column was washed with three volumes of Tris-buffered saline (TBS) containing 1 mM Ca^2+ and 25 mM OG and then with TBS containing 1 mM Ca^2+ and 25 mM octyl thioglucoside (OTG) at room temperature. […] Finally, Ca^2+ and Mg^+2 were added to eluted fractions to achieve final concentrations of 1 mM for both ions.
Maxisorp microtiter plates were coated with 2 μg/ml human vitronectin dissolved in PBS (50 ml/well) and stored overnight at 4° C. The plates were washed two times with PBS-0.05% Tween-20 (wash buffer) and blocked by incubating with about 150 μl/well of assay buffer (1%, BSA (RIA grade or better) in 50 mM Tris-HCl, 100 mM NaCl, 1 mM MgCl2, CaCl2, MnCl2 pH 7.4) for 60 minutes. […] The plates were read at 492-405 nm and the data analyzed by four-parameters fit. […]
In parallel studies with the platelet aggregation experiments (described in Example V), the apparent affinities of peptides for GP IIb/IIIa, fibronectin and vitronectin receptors were determined. […]
Those for VnR and GP IIb/IIIa were determined either by ELISA or liposome attachment assay (Example IV).

platelets [5] = target: T2, platelets (Homo sapiens, UniProt P05106+P08514); format: cell-based; conditions: ADP 10 μm; citrated PRP; read-out: ADP-Stimulated Aggregation (IC50)
Protocol: Briefly, the change in light transmission was measured through a stirred suspension of platelets in an aggregometer (Model 400 VS, Chrono-Log, Havertown, Pa., USA). […] In studies using thrombin, the PRP was gel-filtered on Sepharose 2B in divalent ion-free Tyrode's solution containing 2% BSA. For all studies, the reference standard was platelet-poor plasma, which was obtained by centrifuging PRP at 1000×g for 5 min.
All aggregation studies were performed at 37° C. with a constantly stirred suspension of 3×10^8 platelets/ml. (Platelet count was determined with the aid of a hemacytometer.) Peptides and stimulants were added to these suspensions in 1% dilutions. The PRP and gel-filtered platelets were used within three hours from the time of blood collection.
Peptide anti-aggregation potencies were determined from dose-responsive curves for the inhibition of the maximum aggregation responses stimulated by physiologic doses of ADP (10 μm) and thrombin (2 U/ml).

platelets [6] = target: T2, platelets; assay: Human platelet aggregation in PRP (modified assay, Table II); format: cell-based; conditions: citrate, collagen, U46619 or ADP
Protocol: In an independent study, a slightly modified aggregation assay was used. Platelet aggregation assays were performed in human platelet rich plasma (PRP). […] The blood was centrifuged at 160×g for 10 minutes at 22° C. and allowed to stand for 5 minutes after which the PRP was decanted. Platelet poor plasma (PPP) was isolated from the remaining blood after centrifugation at 2000×g for 25 minutes. The platelet count of the PRP was diluted to about 300,000 platelets per microliter with PPP.
A 225 μl aliquot of PRP plus 25 μl of either a dilution of the test inhibitor sample or a control (PBS) was incubated for 5 minutes in a Chrono-log Whole Blood Aggregometer at 37° C.

platelets [7] = assay: Ex vivo platelet aggregation in dogs (Example XII.H); parameters: species or system dog; dose or concentration left out as unconfirmed
Protocol: More importantly, several peptides in FIG. 23 were administered to dogs (according to the method of Example VII) at doses capable of inhibiting ex vivo platelet aggregation by >95%.
The bleeding time indicated in the parentheses was measured at a five-fold higher concentration of peptide. […]

αIIbβ3 = target: T3, αIIbβ3 (Homo sapiens, UniProt P05106+P08514); assay: αIIbβ3 (IIb/IIIa-fibrinogen) ELISA of Example XII; format: binding; conditions: comparator analogue 1
T3 construct: Platelet glycoprotein IIb/IIIa was purified from outdated human platelets; from tissue; host or cells: outdated human platelets
Protocol: Microtiter plates were coated overnight at room temperature with 110 μL of human fibrinogen (at 10 μg/mL) diluted in TBS. The plates were then washed three times with 200 μL per well of TBS+0.05% Tween-20. Fifty (50) μL of purified IIb/IIIa diluted in TBS with 20 mM octylglucoside, 2 mM MgCl2 and 2 mM CaCl2 were added to the wells. Fifty (50) μLs of peptide in the same buffer were then added in 10-fold serial dilutions and the plates were incubated for three hours at room temperature. The plates were washed three times with TBS-Tween and 100 μL of rabbit anti-IIb/IIIa were added to each well. After a two hour room temperature incubation, the plates were washed and the remaining steps done as described for the FnR ELISA.
The peptides described in this Example were synthesized according to the methods of Examples I and XI. Selectivity and potency were measured according to the methods of Examples II through XI. The peptide identification numbers used in this Example are consistent and relevant to this Example only. Some of the peptides are identified by other nomenclature elsewhere in this document.

[8] = 10 mg/kg injection, 1, 3 and 5 h
[9] = animal 1, two bolus IV injections of 10 mg/kg
[10] = animal 2, 10 mg/kg bolus IV + 10 mg/kg/hr infusion for 2 h

T2 sequence (P08514 32-1039): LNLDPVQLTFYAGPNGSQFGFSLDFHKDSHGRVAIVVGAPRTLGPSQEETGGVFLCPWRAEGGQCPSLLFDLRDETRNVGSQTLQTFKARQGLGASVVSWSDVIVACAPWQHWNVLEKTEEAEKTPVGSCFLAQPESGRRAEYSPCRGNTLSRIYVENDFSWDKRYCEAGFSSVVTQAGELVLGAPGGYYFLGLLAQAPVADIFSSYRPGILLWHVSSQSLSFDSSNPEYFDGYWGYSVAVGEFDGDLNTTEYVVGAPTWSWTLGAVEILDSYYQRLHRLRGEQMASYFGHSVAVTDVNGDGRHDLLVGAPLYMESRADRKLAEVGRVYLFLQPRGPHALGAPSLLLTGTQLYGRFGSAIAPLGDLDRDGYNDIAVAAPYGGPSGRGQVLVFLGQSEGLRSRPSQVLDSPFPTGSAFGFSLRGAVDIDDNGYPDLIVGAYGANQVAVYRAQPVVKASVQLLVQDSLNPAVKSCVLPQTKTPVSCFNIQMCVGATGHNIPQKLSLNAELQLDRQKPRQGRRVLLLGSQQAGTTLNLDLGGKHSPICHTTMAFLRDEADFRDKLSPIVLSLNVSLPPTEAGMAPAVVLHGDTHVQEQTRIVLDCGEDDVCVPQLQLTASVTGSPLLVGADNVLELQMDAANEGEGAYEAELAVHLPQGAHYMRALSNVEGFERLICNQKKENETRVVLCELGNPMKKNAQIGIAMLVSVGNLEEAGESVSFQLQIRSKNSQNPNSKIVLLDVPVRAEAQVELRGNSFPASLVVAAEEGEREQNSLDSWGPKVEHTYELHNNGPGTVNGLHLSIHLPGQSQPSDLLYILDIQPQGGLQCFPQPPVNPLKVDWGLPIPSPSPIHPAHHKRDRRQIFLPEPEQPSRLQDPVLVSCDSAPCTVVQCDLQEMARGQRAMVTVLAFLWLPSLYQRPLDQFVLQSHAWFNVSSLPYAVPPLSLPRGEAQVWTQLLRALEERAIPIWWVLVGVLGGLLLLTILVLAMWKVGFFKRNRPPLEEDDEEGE
T2 sequence (P05106 27-788): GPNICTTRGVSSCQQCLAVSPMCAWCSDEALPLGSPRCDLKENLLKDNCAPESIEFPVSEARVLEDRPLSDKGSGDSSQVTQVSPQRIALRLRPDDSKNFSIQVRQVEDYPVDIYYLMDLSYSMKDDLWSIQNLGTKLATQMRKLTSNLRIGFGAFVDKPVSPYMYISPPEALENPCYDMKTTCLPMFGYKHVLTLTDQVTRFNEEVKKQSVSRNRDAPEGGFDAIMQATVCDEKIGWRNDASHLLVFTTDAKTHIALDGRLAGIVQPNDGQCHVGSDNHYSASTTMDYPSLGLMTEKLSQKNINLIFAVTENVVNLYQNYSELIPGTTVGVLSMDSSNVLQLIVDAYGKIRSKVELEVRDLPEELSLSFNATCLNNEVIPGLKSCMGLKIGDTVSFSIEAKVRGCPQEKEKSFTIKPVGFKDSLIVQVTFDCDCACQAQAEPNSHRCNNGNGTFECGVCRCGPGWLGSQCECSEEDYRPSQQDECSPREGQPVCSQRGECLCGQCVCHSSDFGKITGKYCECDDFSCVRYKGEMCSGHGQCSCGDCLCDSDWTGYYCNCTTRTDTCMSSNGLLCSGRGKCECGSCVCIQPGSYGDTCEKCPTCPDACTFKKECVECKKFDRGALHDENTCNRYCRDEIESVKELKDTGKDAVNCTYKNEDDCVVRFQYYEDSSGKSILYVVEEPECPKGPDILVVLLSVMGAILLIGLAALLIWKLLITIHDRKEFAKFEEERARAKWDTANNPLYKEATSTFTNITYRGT
T1 sequence (P06756 31-889 limits assumed): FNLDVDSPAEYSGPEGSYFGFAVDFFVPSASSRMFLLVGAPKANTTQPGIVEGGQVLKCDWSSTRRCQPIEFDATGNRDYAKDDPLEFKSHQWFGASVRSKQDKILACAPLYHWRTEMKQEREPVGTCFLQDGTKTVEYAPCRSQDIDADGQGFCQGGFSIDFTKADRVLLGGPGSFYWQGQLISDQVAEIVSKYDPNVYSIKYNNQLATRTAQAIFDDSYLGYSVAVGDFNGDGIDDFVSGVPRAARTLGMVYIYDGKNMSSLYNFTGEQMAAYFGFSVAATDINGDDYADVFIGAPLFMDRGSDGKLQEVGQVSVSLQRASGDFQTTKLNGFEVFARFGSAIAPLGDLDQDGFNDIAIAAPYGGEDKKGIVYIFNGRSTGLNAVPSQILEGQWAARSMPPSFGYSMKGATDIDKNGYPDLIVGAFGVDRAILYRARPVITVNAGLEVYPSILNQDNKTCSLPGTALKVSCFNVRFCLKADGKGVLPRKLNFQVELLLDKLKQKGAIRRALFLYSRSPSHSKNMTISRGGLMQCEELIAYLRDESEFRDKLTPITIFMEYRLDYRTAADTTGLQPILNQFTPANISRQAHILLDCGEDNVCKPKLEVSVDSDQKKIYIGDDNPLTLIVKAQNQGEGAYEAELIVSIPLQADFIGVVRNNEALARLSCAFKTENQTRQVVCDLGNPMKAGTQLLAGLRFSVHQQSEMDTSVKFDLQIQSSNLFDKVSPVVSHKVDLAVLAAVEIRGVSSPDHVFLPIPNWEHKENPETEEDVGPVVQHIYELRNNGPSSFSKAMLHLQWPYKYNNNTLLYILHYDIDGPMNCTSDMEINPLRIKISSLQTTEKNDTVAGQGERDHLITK
T1 sequence (P06756 891-1048 limits assumed): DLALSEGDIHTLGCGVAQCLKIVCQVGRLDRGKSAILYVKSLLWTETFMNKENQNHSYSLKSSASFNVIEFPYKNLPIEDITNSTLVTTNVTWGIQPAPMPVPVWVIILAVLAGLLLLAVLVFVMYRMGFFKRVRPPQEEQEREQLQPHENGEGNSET
T1 sequence (P05106 27-788): as the sequence (P05106 27-788) above
T3 sequence (P08514 32-887 limits assumed): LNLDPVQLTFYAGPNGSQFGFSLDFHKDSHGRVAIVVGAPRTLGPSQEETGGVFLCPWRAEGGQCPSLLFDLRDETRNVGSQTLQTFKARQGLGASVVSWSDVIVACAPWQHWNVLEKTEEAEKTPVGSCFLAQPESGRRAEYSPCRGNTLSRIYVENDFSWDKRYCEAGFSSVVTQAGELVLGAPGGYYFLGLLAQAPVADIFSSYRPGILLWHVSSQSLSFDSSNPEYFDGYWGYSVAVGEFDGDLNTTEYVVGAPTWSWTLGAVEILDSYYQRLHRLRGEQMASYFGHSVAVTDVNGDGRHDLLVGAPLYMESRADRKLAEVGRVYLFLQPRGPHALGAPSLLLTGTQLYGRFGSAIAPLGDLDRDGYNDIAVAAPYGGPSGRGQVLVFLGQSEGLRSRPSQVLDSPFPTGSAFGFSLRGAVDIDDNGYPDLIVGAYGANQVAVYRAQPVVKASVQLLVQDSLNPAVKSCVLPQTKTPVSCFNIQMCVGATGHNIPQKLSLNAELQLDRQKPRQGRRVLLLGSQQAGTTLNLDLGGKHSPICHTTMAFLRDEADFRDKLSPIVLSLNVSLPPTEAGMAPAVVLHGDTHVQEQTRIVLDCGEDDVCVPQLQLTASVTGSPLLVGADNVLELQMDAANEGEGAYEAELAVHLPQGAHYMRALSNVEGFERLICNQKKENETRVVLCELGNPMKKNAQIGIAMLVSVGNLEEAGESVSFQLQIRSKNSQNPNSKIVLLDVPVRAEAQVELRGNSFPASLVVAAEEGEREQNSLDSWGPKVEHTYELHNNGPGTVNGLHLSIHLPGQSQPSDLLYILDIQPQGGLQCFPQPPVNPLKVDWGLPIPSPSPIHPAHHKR
T3 sequence (P08514 891-1039 partner limits assumed): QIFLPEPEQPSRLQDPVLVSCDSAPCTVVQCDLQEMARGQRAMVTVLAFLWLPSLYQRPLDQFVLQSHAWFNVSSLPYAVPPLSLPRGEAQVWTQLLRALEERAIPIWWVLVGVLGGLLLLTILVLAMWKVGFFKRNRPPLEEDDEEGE
T3 sequence (P05106 27-788): as the sequence (P05106 27-788) above

## G(Pen)GHRGDLRCA [2G]
Platelets [1]; [8]
  effect on ADP-stimulated ex vivo aggregation: substantially inhibited
  inhibition of AA-stimulated ex vivo aggregation relative to control: 43-70%
  inhibition of collagen-stimulated ex vivo aggregation relative to control: 12-50%
Coronary thrombosis; 10 mg/kg
  coronary thrombosis: time to full occlusion: did not significantly influence
[2]; [9]
  reduction in 111In-platelet uptake by graft: 90%
  reduction in 131I-fibrinogen uptake by graft: 79%
[2]; [10]
  reduction in labelled fibrinogen uptake by graft: 78%
  reduction in labelled platelet uptake by graft: 84%
Platelets [3]
  ex vivo platelet aggregation response: completely unresponsive to the peptide treatment
Canine platelets; 10 μm ADP, […] arachidonic acid or 9.6 micrograms/ml collagen, canine PRP, read-out: IC50 against canine platelet aggregation
  IC50: 15 to 30 µM

## G(Pen)IARGDWNCA
[4]
  IC50: 0.04 µM

## GRGDSP [reference compound]
Canine platelets; all three responses (ADP, arachidonic acid, collagen), read-out: concentration inhibiting canine platelet aggregation by 50%
  IC50: ~130 µM

## R(Pen)GHRGDWRCR [4Q]
Platelets [1]; 5 mg/kg injection
  ex vivo platelet activation by collagen: near-maximal inhibition
Platelets [1]; 5 mg/kg injection, all three time points
  ex vivo platelet response to ADP and AA: completely unresponsive
Platelets [1]; 10 mg/kg injection
  ex vivo platelet aggregation by ADP, AA and collagen: prevented platelet aggregation by all three stimuli at one- and three-hour time points
Platelets [5]
  IC50: 1.3 µM
Coronary thrombosis; 5 mg/kg
  coronary thrombosis: time to full occlusion: significantly prolonged the time to occlusion
  thrombus formation in animals with platelet levels one-third of normal: able to prevent thrombus formation
Coronary thrombosis; 10 mg/kg
  coronary thrombosis: time to full occlusion: completely prevented occlusion
Platelets [6]
  IC50: 3.3 µM

## Ac-CNPRGD(Y-OMe)RCNH2 [8X]
Platelets [7]
  inhibition of ex vivo platelet aggregation: > 95%

## G(dPen)GHRGDLRCA
αIIbβ3
  fold more potent than analogue 1 in the αIIbβ3 assay: approximately 2 fold
